Assay results published in the kinase profiling compilation of Christmann-Franck et al. (2016).

Key:
Assay in all cases: KINOMEscan competition binding
Settings in all cases: compound 10.0 µM
EPHA8 (human) = EPHA8 (human) (UniProt P29322)
ALK (human) = ALK (human) (UniProt Q9UM73)
SIK2 (human) = SIK2 (human) (UniProt Q9H0K1)
RIPK4 (human) = RIPK4 (human) (UniProt P57078)
MAPK4 (human) = MAPK4 (human) (UniProt P31152)
RIPK1 (human) = RIPK1 (human) (UniProt Q13546)
DCLK2 (human) = DCLK2 (human) (UniProt Q8N568)
RAF1 (human) = RAF1 (human) (UniProt P04049)
MYO3A (human) = MYO3A (human) (UniProt Q8NEV4)
HIPK1 (human) = HIPK1 (human) (UniProt Q86Z02)
[1] = target: JAK3 JH1 catalytic (human) (UniProt P52333)
AURKC (human) = AURKC (human) (UniProt Q9UQB9)
CLK1 (human) = CLK1 (human) (UniProt P49759)
MARK2 (human) = MARK2 (human) (UniProt Q7KZI7)
EPHB3 (human) = EPHB3 (human) (UniProt P54753)
STK35 (human) = STK35 (human) (UniProt Q8TDR2)
STK38L (human) = STK38L (human) (UniProt Q9Y2H1)
CAMK2G (human) = CAMK2G (human) (UniProt Q13555)
AKT2 (human) = AKT2 (human) (UniProt P31751)
TLK1 (human) = TLK1 (human) (UniProt Q9UKI8)
ABL2 (human) = ABL2 (human) (UniProt P42684)
SLK (human) = SLK (human) (UniProt Q9H2G2)
CLK3 (human) = CLK3 (human) (UniProt P49761)
WEE1 (human) = WEE1 (human) (UniProt P30291)
TYRO3 (human) = TYRO3 (human) (UniProt Q06418)
[2] = system: FLT3 (human), P36888 [N841I]
CSF1R (human) = CSF1R (human) (UniProt P07333)
NEK1 (human) = NEK1 (human) (UniProt Q96PY6)
MUSK (human) = MUSK (human) (UniProt O15146)
NTRK1 (human) = NTRK1 (human) (UniProt P04629)
INSR (human) = INSR (human) (UniProt P06213)
CIT (human) = CIT (human) (UniProt O14578)
MAP3K5 (human) = MAP3K5 (human) (UniProt Q99683)
CDK18 (human) = CDK18 (human) (UniProt Q07002)
FRK (human) = FRK (human) (UniProt P42685)
PRKCQ (human) = PRKCQ (human) (UniProt Q04759)
STK10 (human) = STK10 (human) (UniProt O94804)
[3] = system: ABL1 (human), P00519 [M351T]
RIOK3 (human) = RIOK3 (human) (UniProt O14730)
RPS6KA6 KD2 (human) = RPS6KA6 KD2 (human) (UniProt Q9UK32)

Chain of DCLK2 (human) (Q8N568 whole entry, looked up): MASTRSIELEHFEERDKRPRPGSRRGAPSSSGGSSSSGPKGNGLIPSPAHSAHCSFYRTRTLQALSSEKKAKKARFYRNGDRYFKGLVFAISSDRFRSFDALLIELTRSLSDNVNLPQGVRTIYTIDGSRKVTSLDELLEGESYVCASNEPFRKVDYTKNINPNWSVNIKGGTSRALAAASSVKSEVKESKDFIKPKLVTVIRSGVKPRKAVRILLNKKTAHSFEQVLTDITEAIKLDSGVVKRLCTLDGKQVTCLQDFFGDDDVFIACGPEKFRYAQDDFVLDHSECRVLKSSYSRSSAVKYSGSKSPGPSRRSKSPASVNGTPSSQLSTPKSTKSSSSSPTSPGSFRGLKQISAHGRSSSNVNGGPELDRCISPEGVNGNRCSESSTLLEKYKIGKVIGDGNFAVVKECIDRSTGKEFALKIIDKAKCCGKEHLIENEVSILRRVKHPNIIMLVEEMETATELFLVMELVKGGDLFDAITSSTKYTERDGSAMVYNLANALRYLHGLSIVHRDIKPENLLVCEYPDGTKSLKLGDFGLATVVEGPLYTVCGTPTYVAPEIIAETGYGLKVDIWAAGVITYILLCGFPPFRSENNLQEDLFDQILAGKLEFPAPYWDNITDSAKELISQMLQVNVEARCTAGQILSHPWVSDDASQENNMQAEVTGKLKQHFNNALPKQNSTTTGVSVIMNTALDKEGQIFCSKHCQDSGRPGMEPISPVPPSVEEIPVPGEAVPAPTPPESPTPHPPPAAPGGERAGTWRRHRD
Chain of MARK2 (human) (Q7KZI7 whole entry, looked up): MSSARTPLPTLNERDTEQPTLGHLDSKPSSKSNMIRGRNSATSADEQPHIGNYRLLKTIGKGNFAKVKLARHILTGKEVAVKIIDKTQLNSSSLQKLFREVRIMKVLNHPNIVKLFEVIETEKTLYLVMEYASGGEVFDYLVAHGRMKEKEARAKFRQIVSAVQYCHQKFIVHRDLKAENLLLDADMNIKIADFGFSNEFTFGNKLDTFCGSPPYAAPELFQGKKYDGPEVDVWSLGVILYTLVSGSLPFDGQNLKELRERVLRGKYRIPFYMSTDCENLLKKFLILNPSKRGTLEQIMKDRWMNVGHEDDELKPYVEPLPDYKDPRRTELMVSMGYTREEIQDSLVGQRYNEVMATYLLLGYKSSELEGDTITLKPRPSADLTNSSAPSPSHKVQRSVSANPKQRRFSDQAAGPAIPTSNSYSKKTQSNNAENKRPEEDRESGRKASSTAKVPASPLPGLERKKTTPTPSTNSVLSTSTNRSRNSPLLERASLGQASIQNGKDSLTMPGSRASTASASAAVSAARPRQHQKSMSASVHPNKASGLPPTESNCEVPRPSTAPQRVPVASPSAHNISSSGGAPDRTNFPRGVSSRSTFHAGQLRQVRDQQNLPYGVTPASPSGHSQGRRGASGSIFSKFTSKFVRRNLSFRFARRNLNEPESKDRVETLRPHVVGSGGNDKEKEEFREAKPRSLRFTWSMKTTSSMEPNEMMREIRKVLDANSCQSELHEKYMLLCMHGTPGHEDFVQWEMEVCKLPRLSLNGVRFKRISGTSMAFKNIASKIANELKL
Chain of PRKCQ (human) (Q04759 whole entry, looked up): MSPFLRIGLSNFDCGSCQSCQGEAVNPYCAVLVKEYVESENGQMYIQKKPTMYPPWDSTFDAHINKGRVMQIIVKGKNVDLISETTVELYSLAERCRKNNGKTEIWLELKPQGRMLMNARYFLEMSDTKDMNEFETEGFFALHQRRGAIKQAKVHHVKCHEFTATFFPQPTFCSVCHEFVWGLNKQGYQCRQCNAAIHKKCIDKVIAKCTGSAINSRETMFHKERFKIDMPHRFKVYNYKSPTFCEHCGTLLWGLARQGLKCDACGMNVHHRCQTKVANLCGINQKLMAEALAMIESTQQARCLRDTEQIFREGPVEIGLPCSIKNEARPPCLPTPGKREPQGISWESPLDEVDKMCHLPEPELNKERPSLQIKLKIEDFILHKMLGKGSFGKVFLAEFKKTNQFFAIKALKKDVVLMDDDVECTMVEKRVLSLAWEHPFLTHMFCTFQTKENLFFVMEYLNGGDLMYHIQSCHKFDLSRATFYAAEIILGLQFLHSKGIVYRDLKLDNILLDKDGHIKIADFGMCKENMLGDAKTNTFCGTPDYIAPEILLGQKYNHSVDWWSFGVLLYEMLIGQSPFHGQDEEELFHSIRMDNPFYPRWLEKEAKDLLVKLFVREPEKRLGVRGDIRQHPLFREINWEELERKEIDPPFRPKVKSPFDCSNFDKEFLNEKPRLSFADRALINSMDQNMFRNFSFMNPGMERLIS
Chain of CDK18 (human) (Q07002 whole entry, looked up): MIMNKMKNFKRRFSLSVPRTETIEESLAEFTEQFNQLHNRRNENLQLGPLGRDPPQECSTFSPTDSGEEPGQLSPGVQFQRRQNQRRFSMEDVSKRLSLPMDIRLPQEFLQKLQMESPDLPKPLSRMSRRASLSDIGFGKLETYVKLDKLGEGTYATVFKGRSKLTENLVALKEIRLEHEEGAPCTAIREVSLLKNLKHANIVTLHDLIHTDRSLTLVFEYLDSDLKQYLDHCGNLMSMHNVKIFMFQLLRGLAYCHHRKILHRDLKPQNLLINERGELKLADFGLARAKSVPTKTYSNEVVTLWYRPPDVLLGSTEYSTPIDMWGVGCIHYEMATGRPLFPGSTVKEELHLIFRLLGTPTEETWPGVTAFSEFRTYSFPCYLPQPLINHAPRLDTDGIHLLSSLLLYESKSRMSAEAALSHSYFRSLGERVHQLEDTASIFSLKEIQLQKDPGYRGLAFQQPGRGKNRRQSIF
Chain of MAPK4 (human) (P31152 whole entry, looked up): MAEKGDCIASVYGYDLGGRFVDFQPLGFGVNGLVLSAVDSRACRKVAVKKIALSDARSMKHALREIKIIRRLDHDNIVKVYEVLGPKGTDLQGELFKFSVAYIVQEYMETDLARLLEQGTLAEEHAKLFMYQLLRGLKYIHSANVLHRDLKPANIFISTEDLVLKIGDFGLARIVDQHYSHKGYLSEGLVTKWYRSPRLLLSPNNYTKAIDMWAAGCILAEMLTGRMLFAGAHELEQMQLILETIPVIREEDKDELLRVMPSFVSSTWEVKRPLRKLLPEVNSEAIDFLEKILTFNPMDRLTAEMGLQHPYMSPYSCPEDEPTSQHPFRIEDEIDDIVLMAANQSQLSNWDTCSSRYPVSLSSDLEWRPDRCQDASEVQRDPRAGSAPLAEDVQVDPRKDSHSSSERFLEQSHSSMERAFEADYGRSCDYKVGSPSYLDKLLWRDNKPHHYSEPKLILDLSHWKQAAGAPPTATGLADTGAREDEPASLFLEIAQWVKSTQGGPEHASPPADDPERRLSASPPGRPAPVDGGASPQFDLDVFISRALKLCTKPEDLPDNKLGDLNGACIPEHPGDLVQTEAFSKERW
Chain of EPHA8 (human) (P29322 whole entry, looked up): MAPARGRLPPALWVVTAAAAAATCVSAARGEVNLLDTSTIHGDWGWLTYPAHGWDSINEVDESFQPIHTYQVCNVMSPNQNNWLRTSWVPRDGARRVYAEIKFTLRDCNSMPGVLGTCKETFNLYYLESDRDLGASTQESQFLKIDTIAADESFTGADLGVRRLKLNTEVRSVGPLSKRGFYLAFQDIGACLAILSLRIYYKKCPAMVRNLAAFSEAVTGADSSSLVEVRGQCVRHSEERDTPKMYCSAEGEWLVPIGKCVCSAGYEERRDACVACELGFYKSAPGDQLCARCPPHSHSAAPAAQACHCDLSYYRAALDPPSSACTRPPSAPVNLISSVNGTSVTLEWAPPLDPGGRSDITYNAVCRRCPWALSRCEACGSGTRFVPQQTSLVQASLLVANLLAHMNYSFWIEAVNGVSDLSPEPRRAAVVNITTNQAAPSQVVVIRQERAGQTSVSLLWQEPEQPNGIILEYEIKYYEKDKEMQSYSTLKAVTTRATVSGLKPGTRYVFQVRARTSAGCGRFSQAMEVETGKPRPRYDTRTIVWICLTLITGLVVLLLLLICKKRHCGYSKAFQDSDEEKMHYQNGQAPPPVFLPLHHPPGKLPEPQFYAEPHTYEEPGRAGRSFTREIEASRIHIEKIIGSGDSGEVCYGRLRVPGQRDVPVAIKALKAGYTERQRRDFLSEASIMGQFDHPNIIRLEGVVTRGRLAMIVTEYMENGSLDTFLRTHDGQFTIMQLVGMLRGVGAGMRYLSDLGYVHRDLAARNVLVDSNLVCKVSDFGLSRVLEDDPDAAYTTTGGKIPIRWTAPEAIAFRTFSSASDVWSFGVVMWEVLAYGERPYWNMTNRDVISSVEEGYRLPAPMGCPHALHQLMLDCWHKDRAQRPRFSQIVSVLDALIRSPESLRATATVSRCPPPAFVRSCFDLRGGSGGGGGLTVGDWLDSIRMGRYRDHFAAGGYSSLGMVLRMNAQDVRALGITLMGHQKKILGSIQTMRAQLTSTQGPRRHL
Chain of RAF1 (human) (P04049 whole entry, looked up): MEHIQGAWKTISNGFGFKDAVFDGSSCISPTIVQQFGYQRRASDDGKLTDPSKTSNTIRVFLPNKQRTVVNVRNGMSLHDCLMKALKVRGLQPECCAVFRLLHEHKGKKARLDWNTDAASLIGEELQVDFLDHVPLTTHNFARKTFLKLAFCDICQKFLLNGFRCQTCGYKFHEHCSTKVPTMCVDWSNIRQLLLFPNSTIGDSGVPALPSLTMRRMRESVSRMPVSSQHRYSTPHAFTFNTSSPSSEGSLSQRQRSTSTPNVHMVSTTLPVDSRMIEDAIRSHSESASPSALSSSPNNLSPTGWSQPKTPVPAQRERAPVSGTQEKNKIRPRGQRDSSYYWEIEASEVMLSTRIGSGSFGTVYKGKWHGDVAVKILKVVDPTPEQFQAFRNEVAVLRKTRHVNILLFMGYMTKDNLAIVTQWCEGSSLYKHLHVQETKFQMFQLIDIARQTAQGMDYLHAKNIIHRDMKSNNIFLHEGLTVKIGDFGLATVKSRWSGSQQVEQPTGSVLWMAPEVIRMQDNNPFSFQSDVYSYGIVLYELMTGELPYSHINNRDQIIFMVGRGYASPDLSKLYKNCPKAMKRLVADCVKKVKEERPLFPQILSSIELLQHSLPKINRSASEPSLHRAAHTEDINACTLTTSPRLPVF

C=CC(=O)Nc1cccc(Nc2nc(N[C@H]3CC[C@H](N(C)C)CC3)nc3c2ncn3C(C)C)c1 was tested, and the kinase still bound, per cent of control (EPHA8 (human)) was 100%, the kinase still bound, per cent of control (ALK (human)) was 21% and the kinase still bound, per cent of control (SIK2 (human)) was 69%. For the same molecule, the kinase still bound, per cent of control (RIPK4 (human)) was 72%, the kinase still bound, per cent of control (MAPK4 (human)) was 100% and the kinase still bound, per cent of control (RIPK1 (human)) was 100%. For the same molecule, the kinase still bound, per cent of control (DCLK2 (human)) was 89%, the kinase still bound, per cent of control (RAF1 (human)) was 100% and the kinase still bound, per cent of control (MYO3A (human)) was 94%. It also gave a kinase still bound, per cent of control (HIPK1 (human)) of 25%, a kinase still bound, per cent of control [1] of 89% and a kinase still bound, per cent of control (AURKC (human)) of 69%. It also gave a kinase still bound, per cent of control (CLK1 (human)) of 1%, a kinase still bound, per cent of control (MARK2 (human)) of 57% and a kinase still bound, per cent of control (EPHB3 (human)) of 83%. It also gave a kinase still bound, per cent of control (STK35 (human)) of 80%, a kinase still bound, per cent of control (STK38L (human)) of 41% and a kinase still bound, per cent of control (CAMK2G (human)) of 76%. It also gave a kinase still bound, per cent of control (AKT2 (human)) of 84%, a kinase still bound, per cent of control (TLK1 (human)) of 100% and a kinase still bound, per cent of control (ABL2 (human)) of 94%. It also gave a kinase still bound, per cent of control (SLK (human)) of 26%, a kinase still bound, per cent of control (CLK3 (human)) of 9% and a kinase still bound, per cent of control (WEE1 (human)) of 51%. For the same molecule, the kinase still bound, per cent of control (TYRO3 (human)) was 100%, the kinase still bound, per cent of control [2] was 0% and the kinase still bound, per cent of control (CSF1R (human)) was 52%. The kinase still bound, per cent of control (NEK1 (human)) was 100%, the kinase still bound, per cent of control (MUSK (human)) was 84% and the kinase still bound, per cent of control (NTRK1 (human)) was 15%. The kinase still bound, per cent of control (INSR (human)) was 69%, the kinase still bound, per cent of control (CIT (human)) was 50% and the kinase still bound, per cent of control (MAP3K5 (human)) was 100%. The kinase still bound, per cent of control (CDK18 (human)) was 77%, the kinase still bound, per cent of control (FRK (human)) was 53% and the kinase still bound, per cent of control (PRKCQ (human)) was 3.6%. For the same molecule, the kinase still bound, per cent of control (STK10 (human)) was 72%, the kinase still bound, per cent of control [3] was 71% and the kinase still bound, per cent of control (RIOK3 (human)) was 34%. The kinase still bound, per cent of control (RPS6KA6 KD2 (human)) was 100%.
Cc1ccc(NC(=O)c2cccc(C(C)(C)C#N)c2)cc1Nc1ccc2ncn(C)c(=O)c2c1 gave a kinase still bound, per cent of control (EPHA8 (human)) of 2.1%, a kinase still bound, per cent of control (ALK (human)) of 93% and a kinase still bound, per cent of control (SIK2 (human)) of 77%. It also gave a kinase still bound, per cent of control (RIPK4 (human)) of 98%, a kinase still bound, per cent of control (MAPK4 (human)) of 100% and a kinase still bound, per cent of control (RIPK1 (human)) of 83%. For the same molecule, the kinase still bound, per cent of control (DCLK2 (human)) was 100%, the kinase still bound, per cent of control (RAF1 (human)) was 2.3% and the kinase still bound, per cent of control (MYO3A (human)) was 100%. It also gave a kinase still bound, per cent of control (HIPK1 (human)) of 100%, a kinase still bound, per cent of control [1] of 87% and a kinase still bound, per cent of control (AURKC (human)) of 100%. For the same molecule, the kinase still bound, per cent of control (CLK1 (human)) was 100%, the kinase still bound, per cent of control (MARK2 (human)) was 92% and the kinase still bound, per cent of control (EPHB3 (human)) was 0%. It also gave a kinase still bound, per cent of control (STK35 (human)) of 75%, a kinase still bound, per cent of control (STK38L (human)) of 100% and a kinase still bound, per cent of control (CAMK2G (human)) of 100%. For the same molecule, the kinase still bound, per cent of control (AKT2 (human)) was 100%, the kinase still bound, per cent of control (TLK1 (human)) was 100% and the kinase still bound, per cent of control (ABL2 (human)) was 12%. The kinase still bound, per cent of control (SLK (human)) was 68%, the kinase still bound, per cent of control (CLK3 (human)) was 100% and the kinase still bound, per cent of control (WEE1 (human)) was 100%. The kinase still bound, per cent of control (TYRO3 (human)) was 100%, the kinase still bound, per cent of control [2] was 62% and the kinase still bound, per cent of control (CSF1R (human)) was 0.1%. It also gave a kinase still bound, per cent of control (NEK1 (human)) of 100%, a kinase still bound, per cent of control (MUSK (human)) of 92% and a kinase still bound, per cent of control (NTRK1 (human)) of 98%. The kinase still bound, per cent of control (INSR (human)) was 100%, the kinase still bound, per cent of control (CIT (human)) was 0.05% and the kinase still bound, per cent of control (MAP3K5 (human)) was 100%. For the same molecule, the kinase still bound, per cent of control (CDK18 (human)) was 100%, the kinase still bound, per cent of control (FRK (human)) was 2.8% and the kinase still bound, per cent of control (PRKCQ (human)) was 98%. The kinase still bound, per cent of control (STK10 (human)) was 0.1%, the kinase still bound, per cent of control [3] was 3.3% and the kinase still bound, per cent of control (RIOK3 (human)) was 100%. It also gave a kinase still bound, per cent of control (RPS6KA6 KD2 (human)) of 3.5%.
Work on Cc1cc([C@@H](C)Nc2ccccc2C(=O)O)c2nc(N3CCOCC3)cc(=O)n2c1 yielded a kinase still bound, per cent of control (EPHA8 (human)) of 96%, a kinase still bound, per cent of control (ALK (human)) of 100% and a kinase still bound, per cent of control (SIK2 (human)) of 100%. It also gave a kinase still bound, per cent of control (RIPK4 (human)) of 99%, a kinase still bound, per cent of control (MAPK4 (human)) of 98% and a kinase still bound, per cent of control (RIPK1 (human)) of 100%. The kinase still bound, per cent of control (DCLK2 (human)) was 100%, the kinase still bound, per cent of control (RAF1 (human)) was 100% and the kinase still bound, per cent of control (MYO3A (human)) was 97%. The kinase still bound, per cent of control (HIPK1 (human)) was 100%, the kinase still bound, per cent of control [1] was 94% and the kinase still bound, per cent of control (AURKC (human)) was 93%. The kinase still bound, per cent of control (CLK1 (human)) was 74%, the kinase still bound, per cent of control (MARK2 (human)) was 90% and the kinase still bound, per cent of control (EPHB3 (human)) was 100%. The kinase still bound, per cent of control (STK35 (human)) was 95%, the kinase still bound, per cent of control (STK38L (human)) was 94% and the kinase still bound, per cent of control (CAMK2G (human)) was 98%. The kinase still bound, per cent of control (AKT2 (human)) was 86%, the kinase still bound, per cent of control (TLK1 (human)) was 96% and the kinase still bound, per cent of control (ABL2 (human)) was 95%. It also gave a kinase still bound, per cent of control (SLK (human)) of 100%, a kinase still bound, per cent of control (CLK3 (human)) of 100% and a kinase still bound, per cent of control (WEE1 (human)) of 100%. For the same molecule, the kinase still bound, per cent of control (TYRO3 (human)) was 100%, the kinase still bound, per cent of control [2] was 44% and the kinase still bound, per cent of control (CSF1R (human)) was 94%. For the same molecule, the kinase still bound, per cent of control (NEK1 (human)) was 85%, the kinase still bound, per cent of control (MUSK (human)) was 100% and the kinase still bound, per cent of control (NTRK1 (human)) was 88%. The kinase still bound, per cent of control (INSR (human)) was 100%, the kinase still bound, per cent of control (CIT (human)) was 89% and the kinase still bound, per cent of control (MAP3K5 (human)) was 100%. For the same molecule, the kinase still bound, per cent of control (CDK18 (human)) was 100%, the kinase still bound, per cent of control (FRK (human)) was 83% and the kinase still bound, per cent of control (PRKCQ (human)) was 97%. The kinase still bound, per cent of control (STK10 (human)) was 100%, the kinase still bound, per cent of control [3] was 94% and the kinase still bound, per cent of control (RIOK3 (human)) was 100%. The kinase still bound, per cent of control (RPS6KA6 KD2 (human)) was 100%.
